Reference: US20180185448A1, “COMPOSITION AND METHOD FOR INDUCING ANTI-INFLAMMATORY RESPONSE” (Vital Therapies, Inc., priority 2015, published 2018)
Entries after “also recorded” stand apart in the source; their conditions may differ.

What was measured:
[1] = tested on: monolayer C3A cells; experiment: Monolayer C3A cells incubated with inflammatory cytokines (IL-6, IL-1β, TNF-α); secreted factors assayed in conditioned media by ELISA/multiplex; type: cell-based, human; conditions: for AAT secretion at 54 h: 54 h compared with 24 h; for TNF-α secretion: 24 and 48 h; for IL-10 secretion / IL-10 secretion at 48 hr: 10 ng/mL; for IL-10 secretion: 24 h vs controls; for IL-10 secretion at 48 hr: 48 hr compared with 24 h
Method: (§1) Conditioned media from C3A cells of an active cartridge of a treatment system of the disclosure were assayed for APP, cytokines, and other mediators that affect inflammation using singleplex ELISA kits (R&D Systems, abcam), chemiluminescent multiplex array kits (Aushon) and/or contracted services (Myriad Rules Based Medicine). Inflammatory cytokines reported to be present in hepatitis patient serum (IL-6 [0, 1, 10, 100 ng/mL]±IL-1β [0, 1, 10, 100 ng/mL]) were incubated with monolayer, or C3A cells recovered from the treatment system, for 24 or 54 h, and conditioned media were assayed for the APP IL-1 receptor antagonist (IL-1Ra), alpha-1-antitrypsin (AAT), and albumin. Lipopolysaccharide (LPS) (0, 0.01, 0.1, 1, 10 EU/mL) was incubated with monolayer C3A cells for 24 h and assayed for APP.
Conditioned media from active cartridges including qualified C3A cells were assayed for APP, cytokines, and other mediators that affect inflammation. Inflammatory cytokines present in patient serum (IL-6±IL-1β) were incubated with monolayer, or C3A cells recovered from the system, for 24 or 54 h and media assayed for IL-1 receptor antagonist (IL-1Ra) and alpha-1-antitrypsin (AAT).
(§2) C3A cells of the invention were plated in monolayer and incubated with LPS or with inflammatory cytokines (IL-6, IL-1β, and/or TNF-α) for 24, 48, or 54 h. Cytokines were dosed individually or in combination at 0, 1, 10, or 100 ng/mL as indicated in each figure. Separate C3A cells were incubated with LPS at 0, 0.01, 0.1, 1, or 10 EU/mL for 24 h.
(§3) Additionally, intact C3A tissue (C3A cells cultured three-dimensionally between polysulfone hollow fibers) was excised from C3A cell cartridges and dosed in conjunction with 10 ng/mL IL-1β and 10 ng/mL IL-6 for 24 h. The supernatants from these monolayer C3A cell and ELAD C3A tissue experiments were assayed for IL-1Ra, AAT, IL-10, or albumin via in-house and commercial ELISA kits (R&D Systems, abcam), contracted services for multiplex ELISAs (Myriad), or chemiluminescent multiplex assay kits (Aushon).

[2] = tested on: monolayer C3A cells; experiment: Monolayer C3A cells incubated with LPS for 24 h; IL-1Ra and AAT assayed in media; type: cell-based, human
Method: as §1, §2, §3

[3] = Example 1, monolayer C3A cultures
[4] = Example 3, monolayer C3A cells 1.3×10^5 cells/cm, 24 and 54 h, n=3
[5] = Examples 1-2, monolayer C3A cells, 24 h, single replicates of pooled triplicate wells
[6] = Examples 1-2, monolayer C3A cells
[7] = FIG. 18 experiment, monolayer C3A cells 2.6×10^5 cells/cm^2, TNF-α 1, 10 or 100 ng/mL, IL-1β 10 ng/mL
[8] = monolayer C3A cells 2.6×10^5 cells/cm^2
[9] = monolayer C3A cells, IL-6 ± IL-1β 1-100 ng/mL, 24 h (or time not stated)
[10] = Example 3, monolayer C3A cells 1.3×10^5 cells/cm^2
[11] = Example 3, monolayer, 24, 48 hr
[12] = Example 3, monolayer, 24 hr, 48 hr

Interleukin-1 beta [IL-1β]
G-CSF increase [1, 3]: 50 fold | IL-8 increase [1, 3]: 2,000 fold | SCF increase [1, 3]: 100 fold | TNFα increase [1, 3]: 25 fold | AAT secretion [1, 4]: no apparent effect; also recorded: not affected | IL-6-induced fibrinogen expression on addition of IL-1β ([1]; Example 3, monolayer C3A cells, IL-1β added to IL-6): abrogated | AAT secretion [1, 5]: dose-dependent upregulation; also recorded: upregulated | AAT secretion ([1]; Examples 1-2, monolayer C3A cells, 24 h, single replicates of pooled triplicate wells, listed as IL-1 β): dose-dependent up-regulation | AAT secretion at 54 h [1, 6]: further increased; also recorded: increases with exposure time | AAT secretion at 54 h ([1]; Examples 1-2, monolayer C3A cells, listed as IL-1 β): further increased | IL-1Ra secretion [1, 7]: increased; also recorded: upregulated | TNF-α secretion [1, 8]: upregulated; also recorded: low, yet elevated | IL-10 secretion ([1]; monolayer C3A cells): increased above the controls; also recorded: upregulated | IL-10 secretion at 48 hr ([1]; monolayer C3A cells): further increased | IL-1Ra secretion [1, 9]: did not increase

Interleukin-6 [IL-6]
IL-10 increase [1, 3]: 10 fold | IL-18 increase [1, 3]: 9 fold | MCP-1 increase [1, 3]: 15 fold | TNF-β increase [1, 3]: 12 fold | fibrinogen increase [1, 3]: 6 fold | AAT secretion [1, 4]: no apparent effect; also recorded: not affected | fibrinogen secretion [1, 10]: increased | α-2 macroglobulin secretion [1, 10]: increased; also recorded: modestly upreguated | Fibrinogen increase vs. control [1, 11]: ~6 fold | IL-18 increase vs. control [1, 11]: ~9 fold | Monocyte chemotactic protein 1 (MCP-1) increase vs. control [1, 11]: ~15 fold | TNF-β increase vs. control [1, 11]: ~12 fold | Granulocyte-colony stimulating factor (G-CSF) increase vs. control ([1]; Example 3, monolayer, 24 hr): ~50 fold | IL-7 increase vs. control ([1]; Example 3, monolayer, 24 hr): ~10 fold | IL-10 increase vs. control ([1]; Example 3, monolayer, 24 hr): ~10 fold | IL-8 increase vs. control [1, 12]: ~2,000 fold | Stem cell factor (SCF) increase vs. control [1, 12]: ~100 fold | TNFα increase vs. control [1, 12]: ~25 fold | Granulocyte-colony stimulating factor (G-CSF) increase vs. control ([1]; Example 3, monolayer, 48 hr): ~75 fold | IL-7 increase vs. control ([1]; Example 3, monolayer, 48 hr): ~14 fold | Granulocyte-colony stimulating factor (G-CSF) increase with IL-6 vs. control ([1]; Example 3, monolayer, 24 hr): ~300 fold | Granulocyte-colony stimulating factor (G-CSF) increase with IL-6 vs. control ([1]; Example 3, monolayer, 48 hr): ~500 fold | AAT secretion [1, 5]: dose-dependent upregulation; also recorded: upregulated; also recorded: dose-dependent up-regulation | AAT secretion at 54 h [1, 6]: further increased; also recorded: increases with exposure time | TNF-α secretion [1, 8]: upregulated; also recorded: low, yet elevated | IL-10 secretion ([1]; monolayer C3A cells): increased above the controls; also recorded: upregulated | IL-10 secretion at 48 hr ([1]; monolayer C3A cells): further increased | IL-1Ra secretion [1, 9]: did not increase

TNF-α
IL-1Ra secretion at the highest dose ([1]; FIG. 18 experiment, TNF-α 100 ng/mL): observed decrease | IL-1Ra secretion [1, 7]: did not increase; also recorded: not TNF-α alone | APP expression ([1]; TNF-α, except when dosed 10,000-fold higher than measured in culture): did not significantly impact

lipopolysaccharide [LPS]
IL-1Ra secretion ([2]; LPS 0.01, 0.1, 1, 10 EU/mL): increased; also recorded: upregulated | AAT levels ([2]; LPS 0.01-10 EU/mL, higher concentrations = 1 and 10 EU/mL): upregulated; also recorded: increased only at higher concentrations | IL-1Ra secretion increase ([2]; LPS at all concentrations evaluated (0.01, 0.1, 1, and 10 EU/mL)): approximately 2 fold
